According to the supplement of paper PMC10307832:

Assays:
Assay in all cases: relative viability (nuclei count vs DMSO), 5 days (fraction); higher = more cells survive
201T = test system: 201T
Outline: (§1)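 Nuclei were stained with Hoechst during a one-step fixation (final 0.05% Triton X-100, 1% formaldehyde, 1 ug/ml Hoechst) carried out 5 days after dosing, then counted on 4× images. The cells, lung cancer lines in 1536-well plates, had been dosed by pin tool the day after seeding with one drug alone or a fixed anchor-drug dose plus five library-drug doses (not always all listed) in √10 steps. Relative viability is the nuclei count in treated wells divided by that in vehicle wells, and each value is the median of duplicate plates.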

COR-L23 = test system: COR-L23
Outline: as §1

LCLC-97TM1 = test system: LCLC-97TM1
Outline: as §1

PC-14 = test system: PC-14
Outline: as §1

NCI-H650 = test system: NCI-H650
Outline: as §1

NCI-H1355 = test system: NCI-H1355
Outline: as §1

NCI-H2126 = test system: NCI-H2126
Outline: as §1

NCI-H2009 = test system: NCI-H2009
Outline: as §1

HCC-78 = test system: HCC-78
Outline: as §1

NCI-H1734 = test system: NCI-H1734
Outline: as §1

NCI-H460 = test system: NCI-H460
Outline: as §1

HARA = test system: HARA
Outline: as §1

NCI-H647 = test system: NCI-H647
Outline: as §1

NCI-H1792 = test system: NCI-H1792
Outline: as §1

HCC-15 = test system: HCC-15
Outline: as §1

NCI-H596 = test system: NCI-H596
Outline: as §1

LOU-NH91 = test system: LOU-NH91
Outline: as §1

HCC-366 = test system: HCC-366
Outline: as §1

Structure (SMILES): COCC1(CO)C(=O)C2CCN1CC2 (stereo not given) [PRIMA-1MET] + CS(=O)(=O)CCNCc1ccc(-c2ccc3ncnc(Nc4ccc(OCc5cccc(F)c5)c(Cl)c4)c3c2)o1 [Lapatinib] (partner 2 µM)
- relative viability (201T; first compound 0.2 µM): 1.15
- relative viability (201T; first compound 0.6325 µM): 0.695
- relative viability (201T; first compound 2 µM): 0.834
- relative viability (201T; first compound 6.325 µM): 1.07
- relative viability (201T; first compound 20 µM): 1.01
- relative viability (COR-L23; first compound 0.2 µM): 1.11
- relative viability (COR-L23; first compound 0.6325 µM): 0.922
- relative viability (COR-L23; first compound 2 µM): 0.941
- relative viability (COR-L23; first compound 6.325 µM): 1.17
- relative viability (COR-L23; first compound 20 µM): 0.0199
- relative viability (LCLC-97TM1; first compound 0.2 µM): 0.776
- relative viability (LCLC-97TM1; first compound 2 µM): 0.998
- relative viability (LCLC-97TM1; first compound 6.325 µM): 1.08
- relative viability (LCLC-97TM1; first compound 20 µM): 0.148
- relative viability (PC-14; first compound 0.2 µM): 0.396
- relative viability (PC-14; first compound 0.6325 µM): 0.326
- relative viability (PC-14; first compound 2 µM): 0.251
- relative viability (PC-14; first compound 6.325 µM): 0.367
- relative viability (PC-14; first compound 20 µM): 0.358
- relative viability (NCI-H650; first compound 0.2 µM): 1.24
- relative viability (NCI-H650; first compound 2 µM): 0.914
- relative viability (NCI-H650; first compound 6.325 µM): 0.871
- relative viability (NCI-H650; first compound 20 µM): 0.0916
- relative viability (NCI-H1355; first compound 0.2 µM): 1.12
- relative viability (NCI-H1355; first compound 0.6325 µM): 0.933
- relative viability (NCI-H1355; first compound 2 µM): 0.893
- relative viability (NCI-H1355; first compound 6.325 µM): 1
- relative viability (NCI-H1355; first compound 20 µM): 0.998
- relative viability (NCI-H2126; first compound 0.2 µM): 0.875
- relative viability (NCI-H2126; first compound 0.6325 µM): 0.757
- relative viability (NCI-H2126; first compound 2 µM): 0.733
- relative viability (NCI-H2126; first compound 6.325 µM): 0.815
- relative viability (NCI-H2126; first compound 20 µM): 0.773
- relative viability (NCI-H2009; first compound 0.2 µM): 0.66
- relative viability (NCI-H2009; first compound 0.6325 µM): 0.844
- relative viability (NCI-H2009; first compound 2 µM): 0.669
- relative viability (NCI-H2009; first compound 6.325 µM): 0.905
- relative viability (NCI-H2009; first compound 20 µM): 0.0051
- relative viability (HCC-78; first compound 0.2 µM): 0.984
- relative viability (HCC-78; first compound 0.6325 µM): 0.539
- relative viability (HCC-78; first compound 6.325 µM): 0.78
- relative viability (HCC-78; first compound 20 µM): 0.686
- relative viability (NCI-H1734; first compound 0.2 µM): 1.43
- relative viability (NCI-H1734; first compound 0.6325 µM): 0.98
- relative viability (NCI-H1734; first compound 2 µM): 0.857
- relative viability (NCI-H1734; first compound 6.325 µM): 1.07
- relative viability (NCI-H1734; first compound 20 µM): 0.591
- relative viability (NCI-H460; first compound 0.2 µM): 0.993
- relative viability (NCI-H460; first compound 0.6325 µM): 0.826
- relative viability (NCI-H460; first compound 2 µM): 0.893
- relative viability (NCI-H460; first compound 6.325 µM): 0.607
- relative viability (NCI-H460; first compound 20 µM): 0.0047
- relative viability (HARA; first compound 0.2 µM): 0.782
- relative viability (HARA; first compound 0.6325 µM): 0.649
- relative viability (HARA; first compound 6.325 µM): 0.804
- relative viability (HARA; first compound 20 µM): 0.706
- relative viability (NCI-H647; first compound 0.2 µM): 1.29
- relative viability (NCI-H647; first compound 0.6325 µM): 1.09
- relative viability (NCI-H647; first compound 2 µM): 0.759
- relative viability (NCI-H647; first compound 6.325 µM): 1.29
- relative viability (NCI-H647; first compound 20 µM): 0.783
- relative viability (NCI-H1792; first compound 0.2 µM): 0.825
- relative viability (NCI-H1792; first compound 0.6325 µM): 0.769
- relative viability (NCI-H1792; first compound 2 µM): 0.868
- relative viability (NCI-H1792; first compound 6.325 µM): 0.963
- relative viability (NCI-H1792; first compound 20 µM): 0.807
- relative viability (HCC-15; first compound 0.2 µM): 0.811
- relative viability (HCC-15; first compound 0.6325 µM): 0.743
- relative viability (HCC-15; first compound 2 µM): 0.777
- relative viability (HCC-15; first compound 6.325 µM): 0.853
- relative viability (HCC-15; first compound 20 µM): 0.623
- relative viability (NCI-H596; first compound 0.2 µM): 1.14
- relative viability (NCI-H596; first compound 0.6325 µM): 1.01
- relative viability (NCI-H596; first compound 2 µM): 0.77
- relative viability (NCI-H596; first compound 6.325 µM): 1.22
- relative viability (NCI-H596; first compound 20 µM): 1.02
- relative viability (LOU-NH91; first compound 0.2 µM): 0.806
- relative viability (LOU-NH91; first compound 0.6325 µM): 0.715
- relative viability (LOU-NH91; first compound 2 µM): 0.656
- relative viability (LOU-NH91; first compound 6.325 µM): 0.692
- relative viability (LOU-NH91; first compound 20 µM): 0.496
- relative viability (HCC-366; first compound 0.2 µM): 1.28
- relative viability (HCC-366; first compound 0.6325 µM): 0.856
- relative viability (HCC-366; first compound 6.325 µM): 0.915
- relative viability (HCC-366; first compound 20 µM): 0.016
